Source: ChEMBL document CHEMBL4350992, “Identification of Diketopiperazine-Containing 2-Anilinobenzamides as Potent Sirtuin 2 (SIRT2)-Selective Inhibitors Targeting the "Selectivity Pocket", Substrate-Binding Site, and NAD+-Binding Site” (J Med Chem, 2019)

biological target: T1, NAD-dependent protein deacetylase sirtuin-2 (Homo sapiens) (UniProt Q8IXJ6); assay: Inhibition of human N-terminal His-tagged SIRT2 expressed in Escherichia coli at 10 uM using p53 (Gln-Pro-Lys-Lys(Ac)) (317 to 320 residues) as substrate incubated for 3 hrs measured up to 30 mins by fluorescence assay relative to control
T1 sequence (whole entry): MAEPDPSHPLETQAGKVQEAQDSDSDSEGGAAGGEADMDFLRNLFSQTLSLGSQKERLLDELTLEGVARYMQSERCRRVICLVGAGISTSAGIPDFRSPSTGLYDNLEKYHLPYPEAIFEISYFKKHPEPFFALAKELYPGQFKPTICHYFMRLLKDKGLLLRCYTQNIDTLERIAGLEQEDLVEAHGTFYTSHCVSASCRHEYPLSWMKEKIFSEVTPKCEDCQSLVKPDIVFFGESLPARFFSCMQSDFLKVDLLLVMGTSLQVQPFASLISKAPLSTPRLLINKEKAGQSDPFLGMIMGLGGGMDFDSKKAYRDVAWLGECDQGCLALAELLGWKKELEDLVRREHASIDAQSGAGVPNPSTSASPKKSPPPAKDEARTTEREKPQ

inhibition	SMILES
83%	CC(C)(C)OC(=O)NCCCCCNC(=O)CNC(=O)c1ccccc1Nc1cccc(OCCc2ccccc2)c1
44%	O=C(Nc1ccccc1)c1ccccc1Nc1cccc(OCCc2ccccc2)c1
50%	O=C(O)CNC(=O)c1ccccc1Nc1cccc(OCCc2ccccc2)c1
57%	CC(C)(C)OC(=O)NCCCNC(=O)c1ccccc1Nc1cccc(OCCc2ccccc2)c1
63%	CONC(=O)c1ccccc1Nc1cccc(OCCc2ccccc2)c1
85%	NC(=O)CNC(=O)c1ccccc1Nc1cccc(OCCc2ccccc2)c1
58%	CCCNC(=O)c1ccccc1Nc1cccc(OCCc2ccccc2)c1
68%	NC(=O)Cc1ccccc1Nc1cccc(OCCc2ccccc2)c1
56%	O=C(NC1CCN(Cc2ccccc2)CC1)c1ccccc1Nc1cccc(OCCc2ccccc2)c1
76%	O=C(NCCO)c1ccccc1Nc1cccc(OCCc2ccccc2)c1
83%	CC(C)(C)OC(=O)NCCCCNC(=O)CNC(=O)c1ccccc1Nc1cccc(OCCc2ccccc2)c1
81%	C[C@H](NC(=O)c1ccccc1Nc1cccc(OCCc2ccccc2)c1)C(N)=O
70%	O=C(NCc1ccccc1)c1ccccc1Nc1cccc(OCCc2ccccc2)c1
28%	O=C(NC1CCCCC1)c1ccccc1Nc1cccc(OCCc2ccccc2)c1
57%	CCCCNC(=O)c1ccccc1Nc1cccc(OCCc2ccccc2)c1
50%	CCCCCNC(=O)c1ccccc1Nc1cccc(OCCc2ccccc2)c1
71%	O=C(c1ccccc1Nc1cccc(OCCc2ccccc2)c1)N1CCOCC1

biological target: T2, NAD-dependent protein deacetylase sirtuin-1 (Homo sapiens) (UniProt Q96EB6); assay: Inhibition of human N-terminal His-tagged SIRT1 expressed in Escherichia coli at 50 uM using p53 (Arg-His-Lys-Lys(Ac)) (379 to 382 residues) as substrate incubated for 3 hrs measured up to 30 mins by fluorescence assay relative to control
T2 sequence (whole entry): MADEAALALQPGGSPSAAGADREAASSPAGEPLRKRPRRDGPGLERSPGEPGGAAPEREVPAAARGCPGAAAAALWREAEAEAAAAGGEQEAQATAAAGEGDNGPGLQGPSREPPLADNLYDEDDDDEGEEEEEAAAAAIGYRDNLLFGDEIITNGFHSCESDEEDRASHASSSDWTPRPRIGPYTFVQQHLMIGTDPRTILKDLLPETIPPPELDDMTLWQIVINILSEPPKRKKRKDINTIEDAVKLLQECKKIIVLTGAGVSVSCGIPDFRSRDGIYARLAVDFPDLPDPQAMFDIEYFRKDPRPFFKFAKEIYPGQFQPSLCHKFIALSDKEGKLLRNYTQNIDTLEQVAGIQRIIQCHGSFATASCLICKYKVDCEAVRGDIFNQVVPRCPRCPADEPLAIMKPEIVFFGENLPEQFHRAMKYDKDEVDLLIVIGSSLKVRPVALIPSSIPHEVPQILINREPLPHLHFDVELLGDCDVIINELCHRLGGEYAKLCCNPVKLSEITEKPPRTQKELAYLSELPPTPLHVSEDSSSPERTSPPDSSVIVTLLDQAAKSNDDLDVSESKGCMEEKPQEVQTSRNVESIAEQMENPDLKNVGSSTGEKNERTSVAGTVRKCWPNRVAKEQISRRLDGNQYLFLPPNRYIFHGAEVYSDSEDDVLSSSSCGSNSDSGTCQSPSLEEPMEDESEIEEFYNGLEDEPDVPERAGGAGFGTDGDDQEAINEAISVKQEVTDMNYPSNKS

inhibition	SMILES
14%	CC(C)(C)OC(=O)NCCCCCNC(=O)CNC(=O)c1ccccc1Nc1cccc(OCCc2ccccc2)c1
9%	O=C(Nc1ccccc1)c1ccccc1Nc1cccc(OCCc2ccccc2)c1
8%	O=C(O)CNC(=O)c1ccccc1Nc1cccc(OCCc2ccccc2)c1
4%	CC(C)(C)OC(=O)NCCCNC(=O)c1ccccc1Nc1cccc(OCCc2ccccc2)c1
6%	CONC(=O)c1ccccc1Nc1cccc(OCCc2ccccc2)c1
10%	NC(=O)CNC(=O)c1ccccc1Nc1cccc(OCCc2ccccc2)c1
8%	CCCNC(=O)c1ccccc1Nc1cccc(OCCc2ccccc2)c1
19%	NC(=O)Cc1ccccc1Nc1cccc(OCCc2ccccc2)c1
8%	O=C(NC1CCN(Cc2ccccc2)CC1)c1ccccc1Nc1cccc(OCCc2ccccc2)c1
12%	O=C(NCCO)c1ccccc1Nc1cccc(OCCc2ccccc2)c1
23%	CC(C)(C)OC(=O)NCCCCNC(=O)CNC(=O)c1ccccc1Nc1cccc(OCCc2ccccc2)c1
15%	C[C@H](NC(=O)c1ccccc1Nc1cccc(OCCc2ccccc2)c1)C(N)=O
12%	O=C(NCc1ccccc1)c1ccccc1Nc1cccc(OCCc2ccccc2)c1
15%	O=C(NC1CCCCC1)c1ccccc1Nc1cccc(OCCc2ccccc2)c1
2%	CCCCNC(=O)c1ccccc1Nc1cccc(OCCc2ccccc2)c1
9%	CCCCCNC(=O)c1ccccc1Nc1cccc(OCCc2ccccc2)c1
4%	O=C(c1ccccc1Nc1cccc(OCCc2ccccc2)c1)N1CCOCC1
